Values quoted from earlier work, collected in article PMC8878452, “A Tale of Toxin Promiscuity: The Versatile Pharmacological Effects of Hcr 1b-2 Sea Anemone Peptide on Voltage-Gated Ion Channels” (Marine Drugs, 2022).
“Also recorded” adds a separate entry of the source. Read-outs that look alike come from different tables or passages of the source. Where no end group is shown, it is not given here.

What was measured:
Nav1.2 = conditions: cited from earlier work
Excerpt: (§1) APETx1 are known to modulate hERG [21], Nav1.2–1.6, and Nav1.8 [20], while APETx2 modulates ASICs, Kv3.4, [22], and hERG [23], as well as Nav1.2, Nav1.6, and Nav1.8 [20]. APETx3 is known for interacting with Nav1.2–1.4, Nav1.6, DmNav1, BgNav1, and VdNav1 [20]. […] Like Hcr 1b-2, APETx1 inhibits the mammalian Nav1.2–1.6 and Nav1.8 isoforms, while APETx2 acts on Nav1.2, Nav1.6, and Nav1.8.

Nav1.8 = conditions: cited from earlier work
Excerpt: as §1

Nav1.6 = conditions: cited from earlier work
Excerpt: as §1

BgNav1 = conditions: cited from earlier work; for effect on insect channel BgNav: printed BgNav
Excerpt: as §1

Nav1.1 = conditions: cited from earlier work
Excerpt: (§2) APETx1 and APETx2 are well-known sea anemone peptides that are characterized as sodium channel modulators. Like Hcr 1b-2, APETx1 inhibits the mammalian Nav1.2–1.6 and Nav1.8 isoforms, while APETx2 acts on Nav1.2, Nav1.6, and Nav1.8.

Nav channels = conditions: cited from earlier work
Excerpt: as §2

Nav1.7 = conditions: cited from earlier work
Excerpt: as §2

hERG = conditions: cited from earlier work
Excerpt: APETx1 are known to modulate hERG [21], Nav1.2–1.6, and Nav1.8 [20], while APETx2 modulates ASICs, Kv3.4, [22], and hERG [23], as well as Nav1.2, Nav1.6, and Nav1.8 [20]. APETx3 is known for interacting with Nav1.2–1.4, Nav1.6, DmNav1, BgNav1, and VdNav1 [20]. […] Previous studies have shown that F15, Y32, F33, and L34 seem to be key residues for the interaction between APETx1 and hERG, as they are located on the molecular surface of this peptide. Hcr 1b-2 shares the same residues in its sequence (Figure 1), which can explain the similar effect observed.

Kv3.4 = system: Kv3.4; set-up: method as in 2 sources, ref 22 = [22]; PMID 15044953; doi:10.1038/sj.emboj.7600177; 22. Diochot S. Baron A. Rash L.D. Deval E. Escoubas P. Scarzello S. Salinas M. Lazdunski M. A new sea anemone peptide, APETx2, inhibits ASIC3, a major acid-sensitive channel in sensory neurons EMBO J. ||| ref 33 = [33]; PMID 16177043; doi:10.1523/JNEUROSCI.2119-05.2005; 33. Yeung S.Y. Thompson D. Wang Z. Fedida D. Robertson B. Modulation of Kv3 subfamily potassium currents by the sea anemone toxin BDS: Significance for CNS and biophysical studies J. Neurosci. 2005 25; conditions: cited from earlier work
ASIC = system: ASIC; set-up: method as in 2 sources, one per row (each row's own in cited_ref): ref 17 = [17]; PMID 29684594; doi:10.1016/j.peptides.2018.04.013; 17. Kalina R. Gladkikh I. Dmitrenok P. Chernikov O. Koshelev S. Kvetkina A. Kozlov S. Kozlovskaya E. Monastyrnaya M. New APETx-like peptides from sea anemone Heteractis crispa modulate ASIC1a channels ||| ref 22 = [22]; PMID 15044953; doi:10.1038/sj.emboj.7600177; 22. Diochot S. Baron A. Rash L.D. Deval E. Escoubas P. Scarzello S. Salinas M. Lazdunski M. A new sea anemone peptide, APETx2, inhibits ASIC3, a major acid-sensitive channel in sensory neurons EMBO J.; conditions: cited from earlier work
Nav1.4 = conditions: cited from earlier work
Excerpt: as §1

Nav1.5 = conditions: cited from earlier work
Excerpt: as §1

Kv10.1 = conditions: cited from earlier work
Kv1.4 = conditions: cited from earlier work
Excerpt: (§3) APETx1 are known to modulate hERG [21], Nav1.2–1.6, and Nav1.8 [20], while APETx2 modulates ASICs, Kv3.4, [22], and hERG [23], as well as Nav1.2, Nav1.6, and Nav1.8 [20]. APETx3 is known for interacting with Nav1.2–1.4, Nav1.6, DmNav1, BgNav1, and VdNav1 [20].

Kv2.1 = conditions: cited from earlier work
Excerpt: as §3

Kv1.3 = conditions: cited from earlier work
Excerpt: as §3

Kv1.5 = conditions: cited from earlier work
Excerpt: as §3

Nav1.3 = conditions: cited from earlier work
Excerpt: as §1

TTX-sensitive channels = conditions: cited from earlier work
Excerpt: (§4) The only targets in which Hcr 1b-2 was not active were Kv3.1 and Kv10.1 (Figure 2 and Figure 3). Among sea anemone toxins, BDS-I, from Anemonia sulcata, is a well-characterized toxin capable of inhibiting isoforms from the Kv3 family, being active on Kv3.1, Kv3.2, and Kv3.4 [33].

TTX-resistant isoforms = conditions: cited from earlier work
Excerpt: as §4

Kv3.1 = conditions: cited from earlier work
Excerpt: as §4

Kv3.2 = conditions: cited from earlier work
Excerpt: as §4

VdNav1 = conditions: cited from earlier work
Excerpt: as §3

DmNav1 = conditions: cited from earlier work
Excerpt: as §3

APETx2: APETx family peptide from Anthopleura elegantissima, UniProt P61542 (GTACSCGNSKGIYWFYRPSCPTDRGYTGSCRYFLGTCCTPAD; ends and bridges not checked; cysteine pairing not given here; UniProt P61542 1-42, looked up)
effect on Nav1.2 (Nav1.2): modulates; also recorded: acts on | effect on Nav1.8 (Nav1.8): modulates; also recorded: acts on | effect on Nav1.6 (Nav1.6): modulates; also recorded: acts on | effect on insect channel BgNav (BgNav1): unaffected | effect on Nav1.1 (Nav1.1): unaffected | modulation of voltage-dependence of Nav channels (Nav channels): did not modulate the voltage-dependence | effect on Nav1.7 (Nav1.7): unaffected | effect on hERG (hERG): modulates | effect on Kv3.4 (Kv3.4): modulates | effect on ASICs (ASIC): modulates

APETx4: APETx family peptide from Anthopleura elegantissima, UniProt C0HL40 (GTTCYCGKTIGIYWFGKYSCPTNRGYTGSCPYFLGICCYPVD; ends and bridges not checked; cysteine pairing not given here; UniProt C0HL40 1-42, looked up)
effect on Nav1.6 (Nav1.6): modulates | effect on Nav1.4 (Nav1.4): modulates | effect on Nav1.5 (Nav1.5): modulates | effect on Kv10.1 (Kv10.1): notorious Kv10.1 inhibitor; also recorded: non-selective Kv10.1 inhibitor | effect on Kv1.4 (Kv1.4): modulates | effect on Kv2.1 (Kv2.1): modulates | effect on Kv1.3 (Kv1.3): modulates | effect on Kv1.5 (Kv1.5): modulates

APETx1: APETx family peptide from Anthopleura elegantissima, UniProt P61541 (GTTCYCGKTIGIYWFGTKTCPSNRGYTGSCGYFLGICCYPVD; ends and bridges not checked; cysteine pairing not given here; UniProt P61541 1-42, looked up)
effect on Nav1.3 (Nav1.3): modulate; also recorded: inhibits | effect on Nav1.2 (Nav1.2): modulate; also recorded: inhibits | effect on Nav1.8 (Nav1.8): modulate; also recorded: inhibits | effect on Nav1.6 (Nav1.6): modulate; also recorded: inhibits | effect on Nav1.4 (Nav1.4): modulate; also recorded: inhibits | effect on Nav1.5 (Nav1.5): modulate; also recorded: inhibits | effect on insect channel BgNav (BgNav1): unaffected | effect on Nav1.1 (Nav1.1): unaffected | effect on Nav1.7 (Nav1.7): unaffected | effect on hERG (hERG): modulate

BDS-I: toxin from Anemonia sulcata, UniProt P11494 (AAPCFCSGKPGRGDLWILRGTCPGGYGYTSNCYKWPNICCYPH; UniProt P11494 1-43, looked up)
effect on TTX-sensitive channels (TTX-sensitive channels): strongly enhances | effect on TTX-resistant isoforms (TTX-resistant isoforms): weakly affected | effect on Kv3.1 (Kv3.1): active | effect on Kv3.2 (Kv3.2): active | effect on Kv3.4 (Kv3.4): active

APETx3: APETx family peptide from Anthopleura elegantissima, UniProt B3EWF9 (GTPCYCGKTIGIYWFGTKTCPSNRGYTGSCGYFLGICCYPVD; ends and bridges not checked; cysteine pairing not given here; UniProt B3EWF9 1-42, looked up)
effect on Nav1.3 (Nav1.3): interacting | effect on Nav1.2 (Nav1.2): interacting | effect on Nav1.6 (Nav1.6): interacting | effect on Nav1.4 (Nav1.4): interacting | effect on BgNav1 (BgNav1): interacting | effect on hERG (hERG; Thr3Pro substitution): abolishes the activity | effect on VdNav1 (VdNav1): interacting | effect on DmNav1 (DmNav1): interacting
